Assay [1] deals with T1, M. tuberculosis ribonucleotide reductase (Mycobacterium tuberculosis, UniProt P9WH75). As to the kind of experiment: biochemical. Format: biochemical. To be noted: for Maximal stimulated ribonucleotide reduction (Example 2): Example 2, written in present tense; for Maximal stimulated CDP reduction: equimolar R1 and R2, DTT as reductant.
Target sequence in this assay (P9WH75 3-725): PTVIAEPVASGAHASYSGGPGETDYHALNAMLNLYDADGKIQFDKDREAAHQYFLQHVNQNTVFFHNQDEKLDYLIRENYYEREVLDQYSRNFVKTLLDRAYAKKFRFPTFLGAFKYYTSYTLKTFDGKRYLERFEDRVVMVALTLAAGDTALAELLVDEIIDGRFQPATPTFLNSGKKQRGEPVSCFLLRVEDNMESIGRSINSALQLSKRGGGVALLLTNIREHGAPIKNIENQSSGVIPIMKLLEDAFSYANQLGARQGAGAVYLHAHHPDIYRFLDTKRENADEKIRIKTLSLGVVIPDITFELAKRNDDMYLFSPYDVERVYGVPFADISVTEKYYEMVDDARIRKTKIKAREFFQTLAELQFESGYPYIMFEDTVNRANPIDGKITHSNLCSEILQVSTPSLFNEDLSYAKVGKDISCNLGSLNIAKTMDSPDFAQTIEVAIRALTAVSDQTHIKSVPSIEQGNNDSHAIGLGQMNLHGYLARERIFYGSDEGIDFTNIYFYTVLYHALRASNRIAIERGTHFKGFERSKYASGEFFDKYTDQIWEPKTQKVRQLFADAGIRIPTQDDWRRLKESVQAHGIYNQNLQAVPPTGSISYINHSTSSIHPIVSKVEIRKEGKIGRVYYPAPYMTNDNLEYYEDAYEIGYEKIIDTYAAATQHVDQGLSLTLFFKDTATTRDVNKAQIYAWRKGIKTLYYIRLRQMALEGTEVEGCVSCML
Assay [2] addresses nrdA/nrdB ribonucleotide reductase (Escherichia coli, UniProt P00452). Particulars: negative effector at higher concentrations; cited from earlier work.
Assay [3] has as its target T2, mammalian enzyme (ribonucleotide reductase) (Homo sapiens, UniProt P23921).
T2 sequence (P23921 1-792): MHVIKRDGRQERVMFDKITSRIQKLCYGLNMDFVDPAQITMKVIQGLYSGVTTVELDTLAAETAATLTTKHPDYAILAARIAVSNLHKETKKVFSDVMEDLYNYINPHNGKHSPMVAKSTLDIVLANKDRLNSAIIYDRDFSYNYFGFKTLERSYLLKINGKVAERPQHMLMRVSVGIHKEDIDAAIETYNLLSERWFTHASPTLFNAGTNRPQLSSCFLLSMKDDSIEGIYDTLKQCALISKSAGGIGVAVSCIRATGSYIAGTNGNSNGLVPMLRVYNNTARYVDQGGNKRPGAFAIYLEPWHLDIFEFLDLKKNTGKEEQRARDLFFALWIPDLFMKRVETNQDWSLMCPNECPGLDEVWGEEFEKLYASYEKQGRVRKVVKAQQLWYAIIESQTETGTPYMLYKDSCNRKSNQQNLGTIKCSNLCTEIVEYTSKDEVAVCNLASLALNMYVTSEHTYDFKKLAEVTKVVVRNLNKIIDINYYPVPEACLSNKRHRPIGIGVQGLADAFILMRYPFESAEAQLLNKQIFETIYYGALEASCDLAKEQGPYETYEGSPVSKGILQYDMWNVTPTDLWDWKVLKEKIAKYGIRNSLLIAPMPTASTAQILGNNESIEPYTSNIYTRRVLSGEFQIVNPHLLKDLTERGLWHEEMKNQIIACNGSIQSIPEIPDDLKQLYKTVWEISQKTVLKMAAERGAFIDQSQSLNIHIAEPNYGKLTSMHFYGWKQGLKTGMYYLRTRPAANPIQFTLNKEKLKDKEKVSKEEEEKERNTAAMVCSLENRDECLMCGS
To be noted: cited from earlier work.

For assay [4], the target named is T1, M. tuberculosis ribonucleotide reductase. Type of assay: biochemical.
Target sequence in this assay (P9WH75 whole entry, looked up): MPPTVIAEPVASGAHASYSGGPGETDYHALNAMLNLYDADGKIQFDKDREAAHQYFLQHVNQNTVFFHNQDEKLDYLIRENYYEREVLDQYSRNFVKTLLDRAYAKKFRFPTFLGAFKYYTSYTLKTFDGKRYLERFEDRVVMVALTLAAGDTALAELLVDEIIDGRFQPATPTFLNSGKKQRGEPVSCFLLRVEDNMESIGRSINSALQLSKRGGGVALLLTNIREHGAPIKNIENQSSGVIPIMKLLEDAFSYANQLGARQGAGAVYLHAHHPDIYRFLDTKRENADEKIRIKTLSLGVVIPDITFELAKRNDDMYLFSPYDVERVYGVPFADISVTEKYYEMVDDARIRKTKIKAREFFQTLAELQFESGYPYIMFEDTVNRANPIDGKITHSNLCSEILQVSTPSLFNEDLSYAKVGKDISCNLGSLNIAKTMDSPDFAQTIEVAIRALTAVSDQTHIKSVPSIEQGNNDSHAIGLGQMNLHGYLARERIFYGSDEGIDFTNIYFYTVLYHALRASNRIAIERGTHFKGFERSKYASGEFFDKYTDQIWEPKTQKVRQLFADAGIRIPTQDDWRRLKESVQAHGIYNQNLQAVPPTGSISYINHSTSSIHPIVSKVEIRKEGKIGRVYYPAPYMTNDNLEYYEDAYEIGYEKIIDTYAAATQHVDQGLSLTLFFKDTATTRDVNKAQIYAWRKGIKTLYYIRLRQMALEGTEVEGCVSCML
The target of assay [5] is T3, nrdE/nrdF ribonucleotide reductase (Salmonella typhimurium, UniProt Q08698).
T3 construct: host or cells: recombinant expression plasmid system (as reported)
T3 sequence (P17424 whole entry): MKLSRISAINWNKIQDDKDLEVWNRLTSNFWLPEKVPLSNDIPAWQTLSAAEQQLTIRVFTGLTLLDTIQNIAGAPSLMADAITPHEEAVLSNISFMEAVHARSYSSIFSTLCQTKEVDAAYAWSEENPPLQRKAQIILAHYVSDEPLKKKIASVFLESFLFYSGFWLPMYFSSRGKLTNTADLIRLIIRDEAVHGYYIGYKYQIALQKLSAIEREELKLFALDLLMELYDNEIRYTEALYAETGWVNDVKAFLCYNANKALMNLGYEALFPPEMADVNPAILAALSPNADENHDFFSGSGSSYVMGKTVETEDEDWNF
T3 sequence (Q08698 whole entry): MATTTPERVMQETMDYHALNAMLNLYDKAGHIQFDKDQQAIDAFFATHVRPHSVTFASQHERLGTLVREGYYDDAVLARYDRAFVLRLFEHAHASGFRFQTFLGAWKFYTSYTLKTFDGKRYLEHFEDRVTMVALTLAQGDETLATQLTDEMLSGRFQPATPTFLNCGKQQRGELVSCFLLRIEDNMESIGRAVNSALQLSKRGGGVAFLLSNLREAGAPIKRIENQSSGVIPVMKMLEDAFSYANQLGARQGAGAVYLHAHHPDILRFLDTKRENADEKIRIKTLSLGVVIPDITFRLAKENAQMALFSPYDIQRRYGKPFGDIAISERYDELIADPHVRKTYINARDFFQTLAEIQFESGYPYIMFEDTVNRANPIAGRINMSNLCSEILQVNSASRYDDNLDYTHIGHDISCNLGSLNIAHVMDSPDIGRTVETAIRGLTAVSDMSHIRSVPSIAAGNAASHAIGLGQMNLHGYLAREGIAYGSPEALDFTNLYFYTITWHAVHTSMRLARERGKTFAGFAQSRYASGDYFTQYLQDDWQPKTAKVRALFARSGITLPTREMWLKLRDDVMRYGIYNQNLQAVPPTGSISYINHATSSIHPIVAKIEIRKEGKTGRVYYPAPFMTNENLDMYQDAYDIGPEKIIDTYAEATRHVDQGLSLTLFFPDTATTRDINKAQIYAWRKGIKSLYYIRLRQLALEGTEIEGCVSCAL
To be noted: cited from earlier work.

For the next assay, the system named is M. smegmatis. Particulars: 200 μg/ml hydroxyurea; cited from earlier work.
Assay [6] has as its target T4, calf thymus ribonucleotide reductase (Bos taurus, UniProt E1BI58).
T4 construct: slightly higher than that found for calf thymus; host or cells: calf thymus
Particulars: cited from earlier work.

The target in assay [7] is Salmonella ribonucleotide reductase (Salmonella typhimurium, UniProt P17424). Particulars: cited from earlier work.
Salmonella ribonucleotide reductase, sequence (P17424 whole entry): as the sequence (P17424 whole entry) above
For assay [8], the target named is M. tuberculosis topoisomerase I (Mycobacterium tuberculosis, UniProt P9WG49). Type of assay: biochemical. To be noted: 150 ng enzyme, 1.0 mM MgCl2.
M. tuberculosis topoisomerase I, sequence (P9WG49 2-896, added parts left off): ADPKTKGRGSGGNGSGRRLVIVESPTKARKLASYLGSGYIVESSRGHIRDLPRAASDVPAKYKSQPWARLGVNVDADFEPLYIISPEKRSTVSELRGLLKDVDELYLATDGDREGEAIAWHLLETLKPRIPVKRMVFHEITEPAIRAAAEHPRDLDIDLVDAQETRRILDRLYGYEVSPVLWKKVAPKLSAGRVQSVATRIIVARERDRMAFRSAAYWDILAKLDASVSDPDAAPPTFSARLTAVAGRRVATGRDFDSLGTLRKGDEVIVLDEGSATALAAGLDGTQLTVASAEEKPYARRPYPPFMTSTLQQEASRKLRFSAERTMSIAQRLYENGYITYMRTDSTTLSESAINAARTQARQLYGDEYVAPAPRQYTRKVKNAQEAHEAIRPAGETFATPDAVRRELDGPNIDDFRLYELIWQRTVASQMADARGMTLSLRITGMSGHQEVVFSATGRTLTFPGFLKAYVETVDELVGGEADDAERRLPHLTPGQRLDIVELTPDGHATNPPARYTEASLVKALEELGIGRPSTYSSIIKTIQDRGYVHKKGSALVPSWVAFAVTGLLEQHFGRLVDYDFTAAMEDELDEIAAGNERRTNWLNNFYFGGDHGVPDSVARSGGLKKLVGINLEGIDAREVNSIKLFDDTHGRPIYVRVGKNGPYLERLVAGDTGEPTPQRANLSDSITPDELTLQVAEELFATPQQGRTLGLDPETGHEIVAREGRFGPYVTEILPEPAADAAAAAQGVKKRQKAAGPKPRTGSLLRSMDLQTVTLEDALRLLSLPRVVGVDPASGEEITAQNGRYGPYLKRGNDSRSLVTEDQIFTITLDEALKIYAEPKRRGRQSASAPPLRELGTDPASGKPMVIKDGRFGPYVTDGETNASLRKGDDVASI
The target in assay [9] is M. tuberculosis ribonucleotide reductase R1 (Mycobacterium tuberculosis, UniProt P9WH75). Format: binding. To be noted: 5 mM ATP.
[10] abbreviates: 5 mg reconstituted RR (1:1 R1 to R2-2), 6 mM CDP, 2 mM ATP, 0.0-0.5 mM inhibitor, read-out: IC50, inhibition of CDP reduction activity by C-terminal R2 peptides.

The source of these data is patent US5834279A (priority 1997, dated 1998).

Read-outs that look alike come from different tables or passages of the source.

nrdA/nrdB ribonucleotide reductase, sequence (P69924 2-376): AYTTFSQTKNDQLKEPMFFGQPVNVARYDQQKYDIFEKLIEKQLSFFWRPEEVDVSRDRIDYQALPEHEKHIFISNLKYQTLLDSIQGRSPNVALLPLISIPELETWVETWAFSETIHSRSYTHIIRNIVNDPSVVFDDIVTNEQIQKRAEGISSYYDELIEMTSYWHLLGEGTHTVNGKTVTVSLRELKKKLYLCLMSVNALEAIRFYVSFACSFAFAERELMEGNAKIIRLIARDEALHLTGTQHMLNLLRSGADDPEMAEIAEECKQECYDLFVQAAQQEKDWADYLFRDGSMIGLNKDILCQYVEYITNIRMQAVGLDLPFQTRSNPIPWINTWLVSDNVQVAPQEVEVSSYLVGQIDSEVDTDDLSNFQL
nrdA/nrdB ribonucleotide reductase, sequence (P00452 whole entry): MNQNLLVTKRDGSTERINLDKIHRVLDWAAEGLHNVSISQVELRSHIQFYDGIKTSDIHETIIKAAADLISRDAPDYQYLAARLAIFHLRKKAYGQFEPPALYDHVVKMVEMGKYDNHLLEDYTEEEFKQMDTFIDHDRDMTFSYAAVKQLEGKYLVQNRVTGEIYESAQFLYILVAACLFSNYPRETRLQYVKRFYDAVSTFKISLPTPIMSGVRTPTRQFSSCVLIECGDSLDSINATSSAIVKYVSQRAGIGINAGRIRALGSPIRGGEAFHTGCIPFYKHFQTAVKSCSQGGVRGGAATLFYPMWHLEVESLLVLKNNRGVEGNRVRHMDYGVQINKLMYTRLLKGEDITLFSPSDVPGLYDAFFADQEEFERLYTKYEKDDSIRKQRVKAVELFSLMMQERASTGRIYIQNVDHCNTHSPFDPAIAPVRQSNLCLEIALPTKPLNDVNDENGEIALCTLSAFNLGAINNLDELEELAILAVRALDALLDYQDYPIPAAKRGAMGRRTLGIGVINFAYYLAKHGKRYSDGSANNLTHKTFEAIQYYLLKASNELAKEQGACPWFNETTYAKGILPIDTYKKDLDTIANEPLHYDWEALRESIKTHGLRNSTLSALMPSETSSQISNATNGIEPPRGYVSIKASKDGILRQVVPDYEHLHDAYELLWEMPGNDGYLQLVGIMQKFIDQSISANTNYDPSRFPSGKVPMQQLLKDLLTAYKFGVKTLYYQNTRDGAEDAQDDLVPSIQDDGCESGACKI

As a reminder, the IC50 is the concentration needed to halve the response being measured. For “Ac-TDTDWDF-OH [R2P7-1, Acetyl-TDTDWDF-OH]”, the IC50 in [1] (setting [10]) was 100 µM.
Take `Nc1ncnc2c1ncn2[C@H]1C[C@H](O)[C@@H](COP(=O)(O)OP(=O)(O)OP(=O)(O)O)O1` [dATP]: in assay [2], the “Concentration up to which dATP activates, nrdA/nrdB system” value was “up to 1 uM”. Besides, in assay [1], the “Maximal stimulated ribonucleotide reduction (Example 2)” value was ≤ 13 pmoles deoxyribonucleotide in 20 min and the “Maximal stimulated CDP reduction” value is ≤ 13 pmoles dCDP in 20 min. The “Highest concentration at which the effector still stimulated reduction” value in assay [1] (inhibition at higher concentrations) is reported as ≤ 1 mM. Besides, in [3], the “dATP concentration above which inhibition is seen in the mammalian system” value was “greater than 0.1 mM”. In addition, the “Effect of nucleotide effector on ribonucleotide reductase activity of native enzyme” value in [4] is “inhibited”. For the same compound, the “Concentration up to which dATP is a positive allosteric activator, nrdE/nrdF system” value in assay [5] is recorded as “up to 1 mM”.
By IC90 is commonly meant the concentration needed for an effect of 90%. On to `NC(=O)NO` [hydroxyurea], for which the “Growth of M. smegmatis” value in the assay with M. smegmatis is “completely inhibited”. In addition, the IC90 in [6] is 1000 µM. The half-maximal inhibitory concentration (IC50) in assay [1] (read-out: IC50, inhibition of the activity of CDP reduction by hydroxyurea) was 2000 µM; in [7], ~500 µM.
Regarding `NCCCCNCCCN` [spermidine], the “DNA relaxing activity in the presence of spermidine” value in assay [8] (4.0 mM spermidine) is listed as “almost completely inhibited”.
As for `Nc1ncnc2c1ncn2[C@@H]1O[C@H](COP(=O)(O)OP(=O)(O)OP(=O)(O)O)[C@@H](O)[C@H]1O` [ATP], in assay [9], the “Labeling of the 84,000 Da band by [alpha-32P]dATP” value is on record as “completely inhibited”. Moreover, in [8] (0.4-1.6 mM ATP), the “Effect of ATP on DNA relaxing activity” value is “inhibited the reaction”. In addition, in assay [1], the “Concentration above which the effector inhibited the activity” value was “higher than 2 mM”, the “Optimum concentration of activator for CDP reduction” value was in the range of 1 to 2 mM, the “Maximal stimulated ribonucleotide reduction (Example 2)” value is “up to 45 pmoles deoxyribonucleotide in 20 min” and the “Maximal stimulated CDP reduction” value is recorded as “up to 45 pmoles dCDP in 20 min”. The “Effect of nucleotide effector on ribonucleotide reductase activity of native enzyme” value in assay [4] was “stimulated”.
Turning to “Ac-EDDDWDF-OH [R2P7-2, Acetyl-EDDDWDF-OH]”, in [1] (setting [10]), the IC50 was in the range of 15 to 20 µM.
